Patent US11691949B2, “Quinoline sulfonamide compounds and their use as antibacterial agents” (OTAGO INNOVATION LIMITED, priority 2017, dated 2023)
In brackets after ≈: the same amount, converted by molar mass. Counter-ions that a name gives are not always drawn. Like-named read-outs stand apart in the source and are kept apart here.

Assays:
Assay type in all cases: cell-based
[1] = tested on: S. aureus ATCC 6538; assay: MIC by broth microdilution, S. aureus; conditions: Staphylococcus aureus
Method: (§1) Antibacterial susceptibility testing was performed in triplicate (biological) by measuring minimum inhibitory concentrations (MICs) by broth microdilution in 96-well flat bottom microtiter plates (ThermoFisher Scientific, New Zealand). S. uberis ATCC 19436, S. aureus ATCC 6538, or E. coli ATCC 10596 cells grown overnight were diluted to an OD600 of approximately 0.025, so that the final concentration of cells in the MIC assay was approximately 5×10^5 cfu/mL in media as follows: S. uberis; Todd Hewitt Broth (THB), S. aureus; Tryptic Soy Broth (TSB) and Cation Adjusted Muller Hinton Broth (CAMHB), and E. coli; Lysogeny Borth (LB) and CAMHB, before being dispensed into microtiter wells. As required additional sterile Zinc Sulphate (Heptahydrate) was supplemented into the media, so the final concentration was 50 μM. Test compounds were added to starting wells and two-fold serial dilutions were undertaken to generate a range of inhibitor concentrations at a final volume of 200 μl. Media and test compound-free (untreated) controls were included in each microtiter plate in triplicate. After 24 h incubation at 37° C. and 200 rpm, the OD600 of wells were read using a Varioskan Flash plate reader (ThermoFisher Scientific, New Zealand). The MIC was reported as the lowest concentration of the test compound for which no growth occurred, as determined by OD600 readings. The minimum bactericidal concentration (MBC) was determined using the Miles-Misra drop-plate method to measure the viability of cells in response to test compound challenge.

[2] = tested on: S. uberis ATCC 19436; assay: MIC by broth microdilution, S. uberis; conditions: Streptococcus uberis
Method: as §1

[3] = tested on: E. coli ATCC 10596; assay: MIC by broth microdilution, E. coli; conditions: Escherichia coli
Method: as §1

[4] = ATCC6538, No Zinc, read-out: S. aureus ATCC 6538 MIC
[5] = ATCC6538, Zinc (50 μM), read-out: S. aureus ATCC 6538 MIC
[6] = ATCC19436, No Zinc, read-out: S. uberis ATCC 19436 MIC
[7] = ATCC19436, Zinc (50 μM), read-out: S. uberis ATCC 19436 MIC
[8] = ATCC 10536 / ATCC 10596, No Zinc, read-out: E. coli ATCC 10536 MIC
[9] = ATCC 10536 / ATCC 10596, Zinc (50 μM), read-out: E. coli ATCC 10536 MIC

MIC [1, 4] [µg/mL]	MIC [1, 5] [µg/mL]	MIC [2, 6] [µg/mL]	MIC [2, 7] [µg/mL]	MIC [3, 8] [µg/mL]	MIC [3, 9] [µg/mL]	SMILES	MIC ([1]; ATCC6538, read-out: S. aureus ATCC 6538 MIC, No Zinc) [µg/mL]	MIC ([1]; ATCC6538, read-out: S. aureus ATCC 6538 MIC, Zinc (50 μM)) [µg/mL]	MIC ([2]; ATCC19436, read-out: S. uberis ATCC 19436 MIC, No Zinc) [µg/mL]	MIC ([2]; ATCC19436, read-out: S. uberis ATCC 19436 MIC, Zinc (50 μM)) [µg/mL]	MIC ([3]; ATCC 10536 / ATCC 10596, read-out: E. coli ATCC 10536 MIC, No Zinc) [µg/mL]	MIC ([3]; ATCC 10536 / ATCC 10596, read-out: E. coli ATCC 10536 MIC, Zinc (50 μM)) [µg/mL]
> 256	> 256	> 256	0.125	> 256	> 256	CC(C)(C)OC(=O)N1CCCC(C(=O)N/N=C/c2ccc3cccc(NS(=O)(=O)c4ccc(C(F)(F)F)cc4)c3n2)C1 (mixture of isomers) [ZDR123, tert-Butyl (E/Z)-3-(2-((8-((4-(trifluoromethyl)phenyl)sulfonamido)quinolin-2-yl)methylene)hydrazine-1-carbonyl)piperidine-1-carboxylate]	–	–	–	–	–	–
> 256	> 256	> 256	0.125 (≈ 0.341 µM)	> 256	> 256	Cc1ccc2cccc(NS(=O)(=O)c3ccc(C(F)(F)F)cc3)c2n1 [ZDR018, N-(2-Methylquinolin-8-yl)-4-(trifluoromethyl)benzenesulfonamide]	–	–	–	–	–	–
8 (≈ 21 µM)	8 (≈ 21 µM)	16 (≈ 42.1 µM)	1 (≈ 2.63 µM)	128 (≈ 337 µM)	128 (≈ 337 µM)	O=Cc1ccc2cccc(NS(=O)(=O)c3ccc(C(F)(F)F)cc3)c2n1 [ZDR019, N-(2-Formylquinolin-8-yl)-4-(trifluoromethyl)benzenesulfonamide]	–	–	–	–	–	–
16 (≈ 39.1 µM)	8 (≈ 19.5 µM)	64 (≈ 156 µM)	0.125 (≈ 0.305 µM)	> 256	> 256	CN(C)Cc1ccc2cccc(NS(=O)(=O)c3ccc(C(F)(F)F)cc3)c2n1 [ZDR022, N-(2-((Dimethylamino)methyl)quinolin-8-yl)-4-(trifluoromethyl)-benzenesulfonamide]	–	–	–	–	–	–
16 (≈ 40.5 µM)	8 (≈ 20.2 µM)	64 (≈ 162 µM)	0.25 (≈ 0.632 µM)	256 (≈ 647 µM)	≥ 256	CNCc1ccc2cccc(NS(=O)(=O)c3ccc(C(F)(F)F)cc3)c2n1 [ZDR024, N-(2-((Methylamino)methyl)quinolin-8-yl)-4-(trifluoromethyl)-benzenesulfonamide]	–	–	–	–	–	–
32 (≈ 78.2 µM)	> 256	64 (≈ 156 µM)	0.125 (≈ 0.305 µM)	256 (≈ 625 µM)	≥ 256	CCNCc1ccc2cccc(NS(=O)(=O)c3ccc(C(F)(F)F)cc3)c2n1 [ZDR025, N-(2-((Ethylamino)methyl)quinolin-8-yl)-4-(trifluoromethyl)-benzenesulfonamide]	–	–	–	–	–	–
32 (≈ 75.6 µM)	> 256	64 (≈ 151 µM)	0.125 (≈ 0.295 µM)	> 256	> 256	CCCNCc1ccc2cccc(NS(=O)(=O)c3ccc(C(F)(F)F)cc3)c2n1 [ZDR026, N-(2-((Propylamino)methyl)quinolin-8-yl)-4-(trifluoromethyl)-benzenesulfonamide]	–	–	–	–	–	–
16 (≈ 37.8 µM)	16 (≈ 37.8 µM)	64 (≈ 151 µM)	0.125 (≈ 0.295 µM)	> 256	> 256	CC(C)NCc1ccc2cccc(NS(=O)(=O)c3ccc(C(F)(F)F)cc3)c2n1 [ZDR027, N-(2-((Isopropylamino)methyl)quinolin-8-yl)-4-(trifluoromethyl)-benzenesulfonamide]	–	–	–	–	–	–
256 (≈ 585 µM)	> 256	128 (≈ 293 µM)	0.125 (≈ 0.286 µM)	> 256	> 256	CCN(CC)Cc1ccc2cccc(NS(=O)(=O)c3ccc(C(F)(F)F)cc3)c2n1 [ZDR028, N-(2-((Diethylamino)methyl)quinolin-8-yl)-4-(trifluoromethyl)-benzenesulfonamide]	–	–	–	–	–	–
> 256	> 256	> 256	0.25 (≈ 0.554 µM)	> 256	> 256	O=S(=O)(Nc1cccc2ccc(CN3CCOCC3)nc12)c1ccc(C(F)(F)F)cc1 [ZDR029, N-(2-((Morpholin-4-yl)methyl)quinolin-8-yl)-4-(trifluoromethyl)-benzenesulfonamide]	–	–	–	–	–	–
16 (≈ 35.4 µM)	16 (≈ 35.4 µM)	16 (≈ 35.4 µM)	1 (≈ 2.21 µM)	128 (≈ 283 µM)	≥ 256	CN(C)CCNCc1ccc2cccc(NS(=O)(=O)c3ccc(C(F)(F)F)cc3)c2n1 [ZDR030, N-(2-(((2-(Dimethylamino)ethyl)amino)methyl)quinolin-8-yl)-4-(trifluoromethyl)benzenesulfonamide]	–	–	–	–	–	–
32 (≈ 75.2 µM)	32 (≈ 75.2 µM)	16 (≈ 37.6 µM)	0.5 (≈ 1.18 µM)	≥ 256	> 256	O=S(=O)(Nc1cccc2ccc(CNCCO)nc12)c1ccc(C(F)(F)F)cc1 [ZDR031, N-(2-(((2-Hydroxyethyl)amino)methyl)quinolin-8-yl)-4-(trifluoromethyl)benzenesulfonamide]	–	–	–	–	–	–
> 256	> 256	> 256	0.125 (≈ 0.278 µM)	> 256	> 256	O=S(=O)(Nc1cccc2ccc(CN3CCCCC3)nc12)c1ccc(C(F)(F)F)cc1 [ZDR033, N-(2-((Piperidin-1-yl)methyl)quinolin-8-yl)-4-(trifluoromethyl)-benzenesulfonamide]	–	–	–	–	–	–
4 (≈ 8.47 µM)	4 (≈ 8.47 µM)	2 (≈ 4.23 µM)	1 (≈ 2.12 µM)	32 (≈ 67.7 µM)	> 256	O=S(=O)(Nc1cccc2ccc(CNCc3ccccn3)nc12)c1ccc(C(F)(F)F)cc1 [ZDR035, N-(2-((((Pyridin-2-yl)methyl)amino)methyl)quinolin-8-yl)-4-(trifluoromethyl)benzenesulfonamide]	–	–	–	–	–	–
> 256	> 256	> 256	> 256	> 256	> 256	CN(CCN(C)Cc1ccc2cccc(NS(=O)(=O)c3ccc(C(F)(F)F)cc3)c2n1)Cc1ccc2cccc(NS(=O)(=O)c3ccc(C(F)(F)F)cc3)c2n1 [ZDR036, N,N′-(((Ethane-1,2-diylbis(methylazanediyl))bis(methylene))-bis(quinoline-2,8-diyl))bis(4-(trifluoromethyl)benzenesulfonamide)]	–	–	–	–	–	–
> 256	> 256	> 256	2 (≈ 2.63 µM)	> 256	> 256	CN(Cc1ccc2cccc(NS(=O)(=O)c3ccc(C(F)(F)F)cc3)c2n1)Cc1ccc2cccc(NS(=O)(=O)c3ccc(C(F)(F)F)cc3)c2n1 [ZDR037, N,N′-(((Methylazanediyl)bis(methylene))bis(quinoline-2,8-diyl))bis(4-(trifluoromethyl)benzenesulfonamide)]	–	–	–	–	–	–
–	–	–	–	–	–	O=C(O)CNCc1ccc2cccc(NS(=O)(=O)c3ccc(C(F)(F)F)cc3)c2n1 [ZDR043, N-(2-(((Carboxymethyl)amino)methyl)quinolin-8-yl)-4-(trifluoromethyl)benzenesulfonamide trifluoroacetate]	> 256	> 256	> 256	> 256	> 256	> 256
> 256	> 256	> 256	0.125 (≈ 0.251 µM)	> 256	> 256	O=C(N/N=C/c1ccc2cccc(NS(=O)(=O)c3ccc(C(F)(F)F)cc3)c2n1)c1ccccc1 [ZDR045, (E)-N-(2-((2-Benzoylhydrazono)methyl)quinolin-8-yl)-4-(trifluoromethyl)benzenesulfonamide]	–	–	–	–	–	–
4 (≈ 8.82 µM)	4 (≈ 8.82 µM)	4 (≈ 8.82 µM)	1 (≈ 2.21 µM)	> 256	> 256	NC(=S)N/N=C/c1ccc2cccc(NS(=O)(=O)c3ccc(C(F)(F)F)cc3)c2n1 [ZDR046, (E)-2-((8-((4-(Trifluoromethyl)phenyl)sulfonamido)quinolin-2-yl)methylene)hydrazine-1-carbothioamide]	–	–	–	–	–	–
> 256	256 (≈ 750 µM)	> 256	0.25 (≈ 0.732 µM)	> 256	> 256	CN(C)Cc1ccc2cccc(NS(=O)(=O)c3ccccc3)c2n1 [ZDR061, N-(2-((Dimethylamino)methyl)quinolin-8-yl)benzenesulfonamide]	–	–	–	–	–	–

SMILES	MIC [1, 4] [µg/mL]	MIC [1, 5] [µg/mL]	MIC [2, 6] [µg/mL]	MIC [2, 7] [µg/mL]	MIC [3, 8] [µg/mL]	MIC [3, 9] [µg/mL]	MIC ([1]; ATCC6538, read-out: S. aureus ATCC 6538 MIC, No Zinc) [µg/mL]	MIC ([1]; ATCC6538, read-out: S. aureus ATCC 6538 MIC, Zinc (50 μM)) [µg/mL]	MIC ([2]; ATCC19436, read-out: S. uberis ATCC 19436 MIC, No Zinc) [µg/mL]	MIC ([2]; ATCC19436, read-out: S. uberis ATCC 19436 MIC, Zinc (50 μM)) [µg/mL]	MIC ([3]; ATCC 10536 / ATCC 10596, read-out: E. coli ATCC 10536 MIC, No Zinc) [µg/mL]	MIC ([3]; ATCC 10536 / ATCC 10596, read-out: E. coli ATCC 10536 MIC, Zinc (50 μM)) [µg/mL]
CC(C)(C)OC(=O)CNCc1ccc2cccc(NS(=O)(=O)c3ccc(C(F)(F)F)cc3)c2n1 [ZDR041, N-(2-(((tert-Butoxycarbonylmethyl)amino)methyl)quinolin-8-yl)-4-(trifluoromethyl)benzenesulfonamide]	64 (≈ 129 µM)	> 256	> 256	0.5 (≈ 1.01 µM)	> 256	> 256	–	–	–	–	–	–
